Results reported in ChEMBL document CHEMBL1255477, “In vitro properties of BAL30072, a novel siderophore sulfactam with activity against multiresistant gram-negative bacilli” (Antimicrob Agents Chemother, 2010).
In brackets after ≈: the same amount, converted by molar mass. Activity calls are given as the source filed them. No cut-off for these calls is given here.

Key:
Pseudomonas aeruginosa [1] = test: Antimicrobial activity against mexAB-oprM protein and mexCD-oprJ deficient Pseudomonas aeruginosa PAO238 by broth dilution method; format: functional
Enterobacter cloacae [2] = test: Antimicrobial activity against Enterobacter cloacae S9369 assessed as appearance of colony at 4 times MIC concentration; format: functional, organism-based
Escherichia coli [3] = test: Antimicrobial activity against Escherichia coli nmcA harboring beta-lactamase NMCA by broth dilution method; format: functional
Pseudomonas aeruginosa [4] = test: microbe, parasite or virus in culture; details: 18S/H
Description: Antimicrobial activity against Pseudomonas aeruginosa 18S/H harboring beta-lactamase Class C by broth dilution method

Pseudomonas aeruginosa [5] = test: Antimicrobial activity against Pseudomonas aeruginosa 621 assessed as appearance of colony at 4 times MIC concentration; format: functional
Acinetobacter sp. = test: Antimicrobial activity against Acinetobacter sp. by broth dilution method; format: functional
Enterobacter cloacae [6] = test: Antimicrobial activity against Enterobacter cloacae by broth dilution method; format: functional
Klebsiella pneumoniae [7] = test: Antimicrobial activity against Klebsiella pneumoniae 1338665 assessed as number of passages required for MIC to rise above 4 times original MIC; format: functional
Acinetobacter baumannii [8] = test: Antimicrobial activity against Acinetobacter baumannii HPA74510 harboring beta-lactamase IMP-4 by broth dilution method; format: functional
Burkholderia sp. = test: Antimicrobial activity against Burkholderia sp. by broth dilution method; format: functional
Pseudomonas aeruginosa [9] = test: Antimicrobial activity against mexAB-oprM, mexCD-oprJ, mexEF-oprN, mexJK, mexXY, opmH and pscC gene deficient Pseudomonas aeruginosa PAO750 by broth dilution method; format: functional
[10] = test system: Stenotrophomonas maltophilia; test: Antimicrobial activity against Stenotrophomonas maltophilia 1AC736 assessed as number of passages required for MIC to rise above 4 times original MIC; format: functional
Proteus mirabilis = test: Antimicrobial activity against Proteus mirabilis by broth dilution method; format: functional
Acinetobacter baumannii [11] = test: Antimicrobial activity against Acinetobacter baumannii HPA74510 assessed as number of passages required for MIC to rise above 4 times original MIC; format: functional
Escherichia coli [12] = test: Antimicrobial activity against Escherichia coli by broth dilution method; format: functional
Citrobacter freundii = test: Antimicrobial activity against Citrobacter freundii by broth dilution method; format: functional
Pseudomonas aeruginosa [13] = test: Antimicrobial activity against Pseudomonas aeruginosa 860 assessed as appearance of colony at 4 times MIC concentration; format: functional
Escherichia coli [14] = test: Antimicrobial activity against Escherichia coli K802N harboring beta-lactamase TEM-3 by broth dilution method; format: functional
Klebsiella pneumoniae [15] = test: Antimicrobial activity against Klebsiella pneumoniae 1338665 assessed as appearance of colony at 4 times MIC concentration; format: functional, organism-based
Pseudomonas aeruginosa [16] = test: Antimicrobial activity against Pseudomonas aeruginosa by broth dilution method; format: functional
Klebsiella pneumoniae [17] = test: Antimicrobial activity against Klebsiella pneumoniae CRE harboring beta-lactamase KPC-2 by broth dilution method; format: functional
Escherichia coli [18] = test: Antimicrobial activity against Escherichia coli HB101 harboring beta-lactamase TEM-5 by broth dilution method; format: functional
Pseudomonas aeruginosa [19] = test: Antimicrobial activity against Pseudomonas aeruginosa BA assessed as appearance of colony at 4 times MIC concentration; format: functional
Acinetobacter baumannii [20] = test: Antimicrobial activity against Acinetobacter baumannii HPA I-16 harboring beta-lactamase OXA-27 by broth dilution method; format: functional
Acinetobacter baumannii [21] = test: Antimicrobial activity against Acinetobacter baumannii HPA 327009 harboring beta-lactamase OXA-25 by broth dilution method; format: functional
Escherichia coli [22] = test: Antimicrobial activity against Escherichia coli A harboring beta-lactamase CTX-M 15 by broth dilution method; format: functional
Klebsiella pneumoniae [23] = test: Antimicrobial activity against Klebsiella pneumoniae by broth dilution method; format: functional
Enterobacter cloacae [24] = test: Antimicrobial activity against Enterobacter cloacae S4741B assessed as number of passages required for MIC to rise above 4 times original MIC; format: functional
Pseudomonas aeruginosa [25] = test: Antimicrobial activity against Pseudomonas aeruginosa BA(C2-107) selected after 25 ug/ml of compound exposure by broth dilution method; format: functional
[26] = test system: Stenotrophomonas maltophilia; test: Antimicrobial activity against Stenotrophomonas maltophilia B715 harboring beta-lactamase L1and L2 by broth dilution method; format: functional
Pseudomonas aeruginosa [27] = test: Antimicrobial activity against Pseudomonas aeruginosa BA by broth dilution method; format: functional
Enterobacter cloacae [28] = test: Microbicidal activity against Enterobacter cloacae S4741B selected after 4 times MIC compound exposure; format: functional
Acinetobacter junii = test: Antimicrobial activity against Acinetobacter junii 15218 assessed as number of passages required for MIC to rise above 4 times original MIC; format: functional
Pseudomonas aeruginosa [29] = test: Antimicrobial activity against fpvA, fpvB, fptA and pirA gene deficient Pseudomonas aeruginosa 860 by broth dilution method; format: functional
Acinetobacter baumannii [30] = test: Antimicrobial activity against Acinetobacter baumannii HPA74510 assessed as appearance of colony at 4 times MIC concentration; format: functional, organism-based
Klebsiella pneumoniae [31] = test: Antimicrobial activity against Klebsiella pneumoniae 1357E harboring beta-lactamase TEM-10 by broth dilution method; format: functional
Serratia marcescens [32] = test: Antimicrobial activity against Serratia marcescens S6 harboring beta-lactamase SME-1.AmpC by broth dilution method; format: functional
Klebsiella pneumoniae [33] = test: Antimicrobial activity against Klebsiella pneumoniae YC harboring beta-lactamase KPC-2,TEM-1and SHV-2 by broth dilution method; format: functional
Klebsiella aerogenes = test: Antimicrobial activity against Enterobacter aerogenes by broth dilution method; format: functional
Pseudomonas aeruginosa [34] = test: Antimicrobial activity against oprD protein deficient Pseudomonas aeruginosa C2 by broth dilution method; format: functional
Pseudomonas aeruginosa [35] = test: Antimicrobial activity against Pseudomonas aeruginosa B4 by broth dilution method; format: functional
Enterobacter cloacae [36] = test: Antimicrobial activity against Enterobacter cloacae S9369 assessed as number of passages required for MIC to rise above 4 times original MIC; format: functional
Pseudomonas aeruginosa [37] = test: microbe, parasite or virus in culture; details: PAO1
Description: Antimicrobial activity against Pseudomonas aeruginosa PAO1 by broth dilution method

Providencia stuartii = test: Antimicrobial activity against Providencia stuartii by broth dilution method; format: functional
Pseudomonas aeruginosa [38] = test: Antimicrobial activity against Pseudomonas aeruginosa BA(C1-106) selected after 25 ug/ml of compound exposure by broth dilution method; format: functional
Pseudomonas aeruginosa [39] = test: microbe, parasite or virus in culture; details: BA
Description: Antimicrobial activity against Pseudomonas aeruginosa BA harboring beta-lactamase Class C by broth dilution method

Pseudomonas aeruginosa [40] = test: Antimicrobial activity against Pseudomonas aeruginosa 527 assessed as number of passages required for MIC to rise above 4 times original MIC; format: functional
Proteus vulgaris = test: Antimicrobial activity against Proteus vulgaris by broth dilution method; format: functional
Providencia rettgeri = test: Antimicrobial activity against Providencia rettgeri by broth dilution method; format: functional
Enterobacter cloacae [41] = test: Antimicrobial activity against Enterobacter cloacae 908R harboring beta-lactamase AmpC by broth dilution method; format: functional
Klebsiella pneumoniae [42] = test: Antimicrobial activity against Klebsiella pneumoniae 26768WU harboring beta-lactamase SHV-5 by broth dilution method; format: functional
Serratia marcescens [43] = test: Antimicrobial activity against Serratia marcescens 1T9 harboring beta-lactamase Class C by broth dilution method; format: functional

## C[C@@H](O)[C@H]1C(=O)N2C(C(=O)O)=C(S[C@@H]3CN[C@H](C(=O)N(C)C)C3)[C@H](C)[C@H]12 [MEROPENEM]
Pseudomonas aeruginosa [1]
  MIC: 0.5 µg/mL (≈ 1.3 µM)
Enterobacter cloacae [2]
  Activity: Active
Escherichia coli [3]
  MIC: > 32 µg/mL
Pseudomonas aeruginosa [4]
  MIC: 2 µg/mL (≈ 5.22 µM)
Pseudomonas aeruginosa [5]
  Activity: 1 frequency
Acinetobacter sp.
  MIC50: 1 µg/mL (≈ 2.61 µM)
  MIC90: > 32 µg/mL
Enterobacter cloacae [6]
  MIC: ≤ 0.06 µg/mL
  MIC50: ≤ 0.06 µg/mL
  MIC90: 0.25 µg/mL (≈ 0.652 µM)
Klebsiella pneumoniae [7]
  Activity: inactive
Acinetobacter baumannii [8]
  MIC: 32 µg/mL (≈ 83.4 µM)
Burkholderia sp.
  MIC50: 2 µg/mL (≈ 5.22 µM)
  MIC90: 4 µg/mL (≈ 10.4 µM)
Pseudomonas aeruginosa [9]
  MIC: 0.5 µg/mL (≈ 1.3 µM)
[10]
  Activity: inactive
Proteus mirabilis
  MIC50: 0.125 µg/mL (≈ 0.326 µM)
  MIC90: 0.5 µg/mL (≈ 1.3 µM)
Acinetobacter baumannii [11]
  Activity: inactive
Escherichia coli [12]
  MIC50: ≤ 0.06 µg/mL
  MIC90: 0.5 µg/mL (≈ 1.3 µM)
Citrobacter freundii
  MIC: ≤ 0.06 µg/mL
  MIC50: ≤ 0.06 µg/mL
  MIC90: 0.25 µg/mL (≈ 0.652 µM)
Pseudomonas aeruginosa [13]
  Activity: 1 frequency
Escherichia coli [14]
  MIC: 16 µg/mL (≈ 41.7 µM)
Klebsiella pneumoniae [15]
  Activity: inactive
Pseudomonas aeruginosa [16]
  MIC50: 4 µg/mL (≈ 10.4 µM)
  MIC90: > 32 µg/mL
Klebsiella pneumoniae [17]
  MIC: > 32 µg/mL
Escherichia coli [18]
  MIC: ≤ 0.06 µg/mL
Pseudomonas aeruginosa [19]
  Activity: 1 frequency
Acinetobacter baumannii [20]
  MIC: > 32 µg/mL
Acinetobacter baumannii [21]
  MIC: > 32 µg/mL
Escherichia coli [22]
  MIC: 0.125 µg/mL (≈ 0.326 µM)
Klebsiella pneumoniae [23]
  MIC50: ≤ 0.06 µg/mL
  MIC90: 16 µg/mL (≈ 41.7 µM)
Enterobacter cloacae [24]
  Activity: 7 passages
Pseudomonas aeruginosa [25]
  MIC: 2 µg/mL (≈ 5.22 µM)
[26]
  MIC: > 32 µg/mL
Pseudomonas aeruginosa [27]
  MIC: 1 µg/mL (≈ 2.61 µM)
Pseudomonas aeruginosa [27]; Pseudomonas aeruginosa, BA, read-out: MIC
  MIC: 1 µg/mL (≈ 2.61 µM)
Enterobacter cloacae [28]
  MBC: 0.25 µg/mL (≈ 0.652 µM)
Acinetobacter junii
  Activity: 9 passages
Pseudomonas aeruginosa [29]
  MIC: 1 µg/mL (≈ 2.61 µM)
Acinetobacter baumannii [30]
  Activity: inactive
Klebsiella pneumoniae [31]
  MIC: ≤ 0.06 µg/mL
Serratia marcescens [32]
  MIC: 32 µg/mL (≈ 83.4 µM)
Klebsiella pneumoniae [33]
  MIC: > 32 µg/mL
Klebsiella aerogenes
  MIC50: 0.25 µg/mL (≈ 0.652 µM)
  MIC90: 4 µg/mL (≈ 10.4 µM)
Pseudomonas aeruginosa [34]
  MIC: 1 µg/mL (≈ 2.61 µM)
Pseudomonas aeruginosa [35]
  MIC: ≤ 0.06 µg/mL
Enterobacter cloacae [36]
  Activity: 9 passages
Pseudomonas aeruginosa [37]
  MIC: 1 µg/mL (≈ 2.61 µM)
Providencia stuartii
  MIC50: 0.25 µg/mL (≈ 0.652 µM)
  MIC90: > 32 µg/mL
Pseudomonas aeruginosa [38]
  MIC: 1 µg/mL (≈ 2.61 µM)
Pseudomonas aeruginosa [39]
  MIC: 1 µg/mL (≈ 2.61 µM)
Pseudomonas aeruginosa [40]
  Activity: 3 passages
Proteus vulgaris
  MIC50: 0.125 µg/mL (≈ 0.326 µM)
  MIC90: 0.5 µg/mL (≈ 1.3 µM)
Providencia rettgeri
  MIC50: 0.25 µg/mL (≈ 0.652 µM)
  MIC90: > 32 µg/mL
Enterobacter cloacae [41]
  MIC: 0.125 µg/mL (≈ 0.326 µM)
Klebsiella pneumoniae [42]
  MIC: ≤ 0.06 µg/mL
Serratia marcescens [43]
  MIC: 0.125 µg/mL (≈ 0.326 µM)
